Read-outs that look alike come from different tables or passages of the source. Starred links: 1 amine or outer side, 2 acyl side, 3 side chain; linkers in the order of their positions; H or OH if unused. Non-standard residues stand in square brackets, D forms with d. Groups on a side chain read outwards from the residue. No end group written: not given here. *: point of attachment. C18 diacid = O=C(O)CCCCCCCCCCCCCCCCC(=O)*; αMePhe(2-F) = C[C@](N)(Cc1ccccc1F)C(=O)O; γGlu = O=C(O)[C@H](CCC(=O)[*:2])N[*:1]; αMe4Pal = C[C@](N)(Cc1ccncc1)C(=O)O; αMeY = C[C@](N)(Cc1ccc(O)cc1)C(=O)O; 4Pal = N[C@@H](Cc1ccncc1)C(=O)O; αMeL = CC(C)C[C@](C)(N)C(=O)O; Orn = NCCC[C@H](N)C(=O)O; Dab = NCC[C@H](N)C(=O)O; Aib = CC(C)(N)C(=O)O
What was measured:
Assay type in all cases: cell-based
human GcgR = human GcgR (Homo sapiens, UniProt P47871); experiment: Functional cAMP activity in the presence of 1% HSA; conditions: read-out: cAMP Rel EC50, hGcgR
hGIPR [1] = target: T1, hGIPR (Homo sapiens, UniProt P48546); experiment: Functional cAMP activation in the presence of 0.1% casein (no HSA); conditions: read-out: Relative cAMP EC50, hGIPR;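 note: intracellular cAMP rise after 30 min at 37 °C read by HTRF against a standard curve, scaled between buffer alone (0%) and top control ligand concentration (100%), four-parameter fit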
T1 sequence (P48546 22-466): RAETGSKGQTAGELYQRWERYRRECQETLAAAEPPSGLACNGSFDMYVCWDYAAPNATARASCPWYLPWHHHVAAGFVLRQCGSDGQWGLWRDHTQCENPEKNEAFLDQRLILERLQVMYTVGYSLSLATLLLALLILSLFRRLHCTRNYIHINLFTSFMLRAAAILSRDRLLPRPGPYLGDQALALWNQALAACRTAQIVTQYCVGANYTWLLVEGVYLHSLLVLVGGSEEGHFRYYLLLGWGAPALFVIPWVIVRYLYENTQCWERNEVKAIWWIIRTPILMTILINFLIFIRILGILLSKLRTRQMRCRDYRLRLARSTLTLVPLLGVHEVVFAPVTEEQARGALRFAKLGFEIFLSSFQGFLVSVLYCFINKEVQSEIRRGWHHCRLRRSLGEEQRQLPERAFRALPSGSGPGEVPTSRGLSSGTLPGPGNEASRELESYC

hGcgR = hGcgR (Homo sapiens, UniProt P47871); experiment: as above; conditions: read-out: Relative cAMP EC50, hGcgR;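 note: intracellular cAMP rise after 30 min at 37 °C, read by HTRF against a cAMP standard curve, scaled from buffer only (0%) to maximal control ligand response (100%)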
hGLP-1R [2] = target: T2, hGLP-1R (Homo sapiens, UniProt P43220); experiment: as above; conditions: read-out: Relative cAMP EC50, hGLP-1R;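 note: intracellular cAMP rise after 30 min at 37 °C read by HTRF, normalized between buffer only (0%) and maximal control ligand (100%), four-parameter variable-slope fit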
hGLP-1R [3] = target: T2, hGLP-1R; experiment: Functional cAMP activity in the presence of 1% HSA; conditions: read-out: cAMP Rel EC50, hGLP-1R
hGIPR [4] = target: T1, hGIPR; experiment: Functional cAMP activity in the presence of 1% HSA; conditions: read-out: cAMP Rel EC50, hGIPR
[5] = in the presence of 0.1% casein (no HSA), geometric mean
[6] = HEK-293 clonal cell line, in the presence of 1% HSA, geometric mean of relative EC50

Sequence of human GcgR (P47871 26-477): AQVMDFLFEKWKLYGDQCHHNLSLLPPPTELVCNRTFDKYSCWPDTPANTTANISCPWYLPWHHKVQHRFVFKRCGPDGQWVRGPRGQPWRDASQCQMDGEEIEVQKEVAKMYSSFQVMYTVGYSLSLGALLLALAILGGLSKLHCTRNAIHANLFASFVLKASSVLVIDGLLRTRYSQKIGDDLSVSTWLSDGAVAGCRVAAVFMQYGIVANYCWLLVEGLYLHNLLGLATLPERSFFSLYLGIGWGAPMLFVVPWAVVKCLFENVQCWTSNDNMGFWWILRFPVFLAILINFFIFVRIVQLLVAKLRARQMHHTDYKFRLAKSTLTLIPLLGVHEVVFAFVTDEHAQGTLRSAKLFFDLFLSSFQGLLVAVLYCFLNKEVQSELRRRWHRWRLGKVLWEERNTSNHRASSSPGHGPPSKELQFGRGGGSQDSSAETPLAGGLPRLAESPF
Sequence of hGcgR (P47871 26-477): as above
T2 sequence (P43220 24-463): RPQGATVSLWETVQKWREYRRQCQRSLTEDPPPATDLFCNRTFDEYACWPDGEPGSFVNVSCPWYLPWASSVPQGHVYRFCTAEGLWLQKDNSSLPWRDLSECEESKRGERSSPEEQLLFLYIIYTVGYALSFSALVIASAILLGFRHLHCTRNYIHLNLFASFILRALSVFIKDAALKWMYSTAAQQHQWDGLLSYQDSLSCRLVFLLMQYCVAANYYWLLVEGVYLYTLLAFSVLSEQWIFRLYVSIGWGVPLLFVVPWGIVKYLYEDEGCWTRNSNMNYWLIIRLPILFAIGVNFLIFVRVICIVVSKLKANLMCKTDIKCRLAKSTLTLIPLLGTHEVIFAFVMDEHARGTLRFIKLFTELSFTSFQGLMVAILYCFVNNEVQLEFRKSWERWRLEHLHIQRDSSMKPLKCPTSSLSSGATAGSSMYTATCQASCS

Row | EC50 (human GcgR; HEK-293 clonal cells expressing hGcgR, in the presence of 1% HSA, geometric mean of relative EC50) [nM] | EC50 (hGLP-1R [3]; HEK-293 clonal cells expressing hGLP-1R, in the presence of 1% HSA, geometric mean of relative EC50) [nM] | Compound | EC50 (human GcgR) [nM] | EC50 (hGIPR [1]; [5]) [nM] | EC50 (hGcgR; [5]) [nM] | EC50 (hGLP-1R [2]; [5]) [nM] | EC50 (hGLP-1R [3]) [nM] | EC50 (hGIPR [4]) [nM] | EC50 (human GcgR; [6]) [nM] | EC50 (hGIPR [4]; [6]) [nM] | EC50 (hGIPR [1]) [nM] | EC50 (hGcgR) [nM] | EC50 (hGLP-1R [2]) [nM]
1 |  |  | CC[C@H](C)[C@H](NC(=O)[C@H](Cc1ccccc1)NC(=O)[C@H](C)NC(=O)C(C)(C)NC(=O)[C@H](CCC(N)=O)NC(=O)[C@H](C)NC(=O)[C@H](CCCCNC(=O)COCCOCCNC(=O)CC[C@H](NC(=O)CCCCCCCCCCCCCCCCC(=O)O)C(=O)O)NC(=O)[C@H](CCCCN)NC(=O)[C@H](CC(=O)O)NC(=O)[C@H](CC(C)C)NC(=O)[C@](C)(CC(C)C)NC(=O)[C@H](CCCN)NC(=O)[C@H](CO)NC(=O)[C@H](Cc1ccccc1)NC(=O)[C@H](CC(=O)O)NC(=O)[C@H](CO)NC(=O)[C@@H](NC(=O)[C@H](Cc1ccccc1)NC(=O)[C@@H](NC(=O)CNC(=O)[C@H](CCC(N)=O)NC(=O)C(C)(C)NC(=O)[C@@H](N)Cc1ccc(O)cc1)[C@@H](C)O)[C@@H](C)O)C(=O)N[C@@H](CCC(=O)O)C(=O)N[C@@H](Cc1ccc(O)cc1)C(=O)N[C@@H](CC(C)C)C(=O)N[C@@H](CC(C)C)C(=O)N[C@@H](CCC(=O)O)C(=O)NC(C)(C)C(=O)NCC(=O)N[C@@H](CCC(=O)O)C(=O)N[C@@H](CO)C(=O)N[C@@H](CO)C(=O)NCC(=O)N[C@@H](C)C(=O)N1CCC[C@H]1C(=O)N1CCC[C@H]1C(=O)N1CCC[C@H]1C(=O)N[C@@H](CO)C(=O)NCC(=O)N[C@@H](CCC(=O)O)C(N)=O [Example 246] | 639 | 0.106 | 2.38 | 3.91 | 845 |  |  |  |  |  | 
2 |  |  | CC[C@H](C)[C@H](NC(=O)[C@H](Cc1ccccc1)NC(=O)[C@H](C)NC(=O)C(C)(C)NC(=O)[C@H](CCC(N)=O)NC(=O)[C@H](C)NC(=O)[C@H](CCCCNC(=O)COCCOCCNC(=O)CC[C@H](NC(=O)CCCCCCCCCCCCCCCCC(=O)O)C(=O)O)NC(=O)[C@H](CCCCN)NC(=O)[C@H](CC(=O)O)NC(=O)[C@H](CC(C)C)NC(=O)[C@](C)(CC(C)C)NC(=O)[C@H](CCCN)NC(=O)[C@H](CO)NC(=O)[C@H](Cc1ccccc1)NC(=O)[C@H](CC(=O)O)NC(=O)[C@H](CO)NC(=O)[C@@H](NC(=O)[C@H](Cc1ccccc1)NC(=O)[C@@H](NC(=O)CNC(=O)[C@H](CCC(N)=O)NC(=O)C(C)(C)NC(=O)[C@@H](N)Cc1ccc(O)cc1)[C@@H](C)O)[C@@H](C)O)C(=O)N[C@@H](CCC(=O)O)C(=O)N[C@@H](Cc1c[nH]c2ccccc12)C(=O)N[C@@H](CC(C)C)C(=O)N[C@@H](CC(C)C)C(=O)N[C@@H](CCC(=O)O)C(=O)NCC(=O)NCC(=O)N1CCC[C@H]1C(=O)N[C@@H](CO)C(=O)N[C@@H](CO)C(=O)NCC(=O)N[C@@H](C)C(=O)N1CCC[C@H]1C(=O)N1CCC[C@H]1C(=O)N1CCC[C@H]1C(=O)N[C@@H](Cc1ccncc1)C(=O)NCC(=O)N[C@@H](CO)C(N)=O [Example 251] | 1500 | 0.153 | 6.98 | 2.64 | 301 |  |  |  |  |  | 
3 | 311 | 24.5 | CC[C@H](C)[C@H](NC(=O)[C@H](Cc1ccccc1)NC(=O)[C@H](C)NC(=O)C(C)(C)NC(=O)[C@H](C)NC(=O)[C@H](C)NC(=O)[C@H](CCCCNC(=O)COCCOCCNC(=O)CC[C@H](NC(=O)CCCCCCCCCCCCCCCCC(=O)O)C(=O)O)NC(=O)[C@H](CCCCN)NC(=O)[C@H](CC(=O)O)NC(=O)[C@H](CC(C)C)NC(=O)[C@](C)(CC(C)C)NC(=O)[C@@H](NC(=O)[C@H](CO)NC(=O)[C@H](Cc1ccc(O)cc1)NC(=O)[C@H](CC(=O)O)NC(=O)[C@H](CO)NC(=O)[C@@H](NC(=O)[C@](C)(Cc1ccccc1F)NC(=O)[C@@H](NC(=O)CNC(=O)[C@H](CCC(N)=O)NC(=O)C(C)(C)NC(=O)[C@@H](N)Cc1c[nH]cn1)[C@@H](C)O)[C@@H](C)O)[C@@H](C)CC)C(=O)N[C@@H](CCC(=O)O)C(=O)N[C@@H](Cc1ccc(O)cc1)C(=O)N[C@@H](CC(C)C)C(=O)N[C@H](C(=O)N[C@@H](CCC(=O)O)C(=O)N[C@H](C(=O)NCC(=O)N1CCC[C@H]1C(=O)N[C@@H](CO)C(=O)N[C@@H](CO)C(=O)NCC(=O)N[C@@H](CCC(=O)O)C(=O)N1CCC[C@H]1C(=O)N1CCC[C@H]1C(=O)N1CCC[C@H]1C(=O)N[C@@H](CO)C(=O)N[C@@H](CCC(=O)O)C(=O)NCC(N)=O)[C@@H](C)O)[C@@H](C)CC [Example 291] |  | 0.26 | 1.88 | 0.22 |  |  |  |  |  |  | 
4 |  |  | CC[C@H](C)[C@H](NC(=O)[C@H](Cc1ccccc1)NC(=O)[C@H](CCCN)NC(=O)C(C)(C)NC(=O)[C@H](CCC(N)=O)NC(=O)[C@H](C)NC(=O)[C@H](CCCCNC(=O)COCCOCCNC(=O)CC[C@H](NC(=O)CCCCCCCCCCCCCCCCCCC(=O)O)C(=O)O)NC(=O)[C@H](CCCN)NC(=O)[C@H](CC(=O)O)NC(=O)[C@H](CC(C)C)NC(=O)[C@](C)(CC(C)C)NC(=O)[C@@H](NC(=O)[C@H](CO)NC(=O)[C@H](Cc1ccncc1)NC(=O)[C@H](CC(=O)O)NC(=O)[C@H](CO)NC(=O)[C@@H](NC(=O)[C@](C)(Cc1ccccc1F)NC(=O)[C@@H](NC(=O)CNC(=O)[C@H](CCC(N)=O)NC(=O)C(C)(C)NC(=O)[C@@H](N)Cc1ccc(O)cc1)[C@@H](C)O)[C@@H](C)O)[C@@H](C)CC)C(=O)N[C@H](CCC(=O)O)C(=O)N[C@@](C)(Cc1ccc(O)cc1)C(=O)N[C@@H](CC(C)C)C(=O)N[C@@H](CC(C)C)C(=O)N[C@@H](CCC(=O)O)C(=O)NCC(=O)NCC(=O)N1CCC[C@H]1C(=O)N[C@@H](CO)C(=O)N[C@@H](CO)C(=O)NCC(=O)N[C@@H](CCC(=O)O)C(=O)N1CCC[C@H]1C(=O)N1CCC[C@H]1C(=O)N1CCC[C@H]1C(=O)N[C@@H](CO)C(N)=O [Example 365] | 1490 | 0.0336 | 4.24 | 0.265 | 75.2 |  |  |  |  |  | 
5 |  |  | H-Y[Aib]QGTFTSD[4Pal]SQ[αMeL]LD[Orn]K([Glu-γGlu-C18 diacid])AQ[αMe4Pal]AFIEYLLAGGPSSGAPPPSGSEE-NH2 [Example 1057] | 2780 | 0.128 | 5.29 | 5.16 |  | 25.9 |  |  |  |  | 
6 |  |  | H-Y[Aib]QGTFTSD[4Pal]SQ[αMeL]LD[Orn]K([γGlu-γGlu-C18 diacid])AQ[αMe4Pal]AFIEYLLAGGPSSGAPPPSGSEE-NH2 [Example 1056] | 1650 | 0.0929 | 3.98 | 4.25 |  | 29.6 |  |  |  |  | 
7 |  |  | H-Y[Aib]QGTFTSD[4Pal]S[Dab][αMeL]LD[Orn]K([γGlu-γGlu-C18 diacid])AQ[αMe4Pal]AFIE[αMe4Pal]LLAGGPSSGAPPPEGSEE-NH2 [Example 1055] |  | 0.366 | 1.88 | 14.6 |  |  | 450 | 78.9 |  |  | 
8 |  |  | H-Y[Aib]QGTFTSD[4Pal]S[Orn][αMeL]LDKK([Glu-γGlu-C18 diacid])AQ[αMe4Pal]AFIEYLIAGGPSSGAPPPSGSEE-NH2 [Example 1060] | 4900 | 0.223 | 9.08 | 2.85 |  | 44.7 |  |  |  |  | 
9 |  |  | H-Y[Aib]QGTFTSD[4Pal]S[Orn][αMeL]LD[Orn]K([Glu-Glu-γGlu-C18 diacid])AQ[αMe4Pal]AFIEYLIAGGPSSGAPPPSGSEE-NH2 [Example 1062] | 2380 | 0.726 | 8.77 | 7.75 |  | 67.5 |  |  |  |  | 
10 |  |  | H-Y[Aib]QGTFTSD[4Pal]S[Orn][αMeL]LD[Orn]K([Glu-γGlu-C18 diacid])AQ[αMe4Pal]AFIEYLIAGGPSSGAPPPSGSEE-NH2 [Example 1061] | 2910 | 0.656 | 17.3 | 4.56 |  | 55.6 |  |  |  |  | 
11 |  |  | H-Y[Aib]QGTFTSD[4Pal]S[Orn][αMeL]LD[Orn]K([γGlu-γGlu-C18 diacid])AQ[αMe4Pal]AFIEYLIAGGPSSGAPPPSGSEE-NH2 [Example 1059] | 748 | 0.468 | 7.52 | 4.61 |  | 48.9 |  |  |  |  | 
12 |  |  | H-Y[Aib]QGT[αMePhe(2-F)]TSD[4Pal]SILLDKK([γGlu-γGlu-C18 diacid])AQ[Aib]AFIEYLTEGGPSSGAPPPSGTE-NH2 [Example 554] | 946 |  |  |  |  | 4.08 |  |  | 0.0323 | 6.83 | 0.423
13 |  |  | Y[Aib]QGTFTSD[4Pal]SQ[αMeL]LD[Orn]K([dE-γGlu-C18 diacid])AQ[αMe4Pal]AFIE[αMeY]LLEGGPSSGAPPPSGSEE-NH2 [Example 1058] | 1450 | 0.139 | 5.8 | 4.48 |  | 45.6 |  |  |  |  | 

Source: patent publication US20240270821A1, “GIP/GLP1/GCG TRI-RECEPTOR AGONISTS AND USES THEREOF” (priority 2023, published 2024)
